# From patent publication US5484780A, “Angiotensin II antagonists” (Eli Lilly and Company, priority 1994, dated 1996)
# Key:
# [1] = target: T1, angiotensin-induced vasoconstriction (rabbit aorta) (Oryctolagus cuniculus, UniProt P34976); test: Rabbit Aorta Test System: antagonism of angiotensin II contraction of aortic rings; parameters: species or system New Zealand white rabbits; conditions: contraction to AII 10^-10 to 10^-7 M, 30 minutes incubation with compound; pA2 = -log KB
# T1 construct: The thoracic aortas were removed and cleaned of excess fat and connective tissue; from tissue; host or cells: thoracic aorta rings of New Zealand white rabbits (animals from Hazelton)
# T1 sequence (P34976 1-359): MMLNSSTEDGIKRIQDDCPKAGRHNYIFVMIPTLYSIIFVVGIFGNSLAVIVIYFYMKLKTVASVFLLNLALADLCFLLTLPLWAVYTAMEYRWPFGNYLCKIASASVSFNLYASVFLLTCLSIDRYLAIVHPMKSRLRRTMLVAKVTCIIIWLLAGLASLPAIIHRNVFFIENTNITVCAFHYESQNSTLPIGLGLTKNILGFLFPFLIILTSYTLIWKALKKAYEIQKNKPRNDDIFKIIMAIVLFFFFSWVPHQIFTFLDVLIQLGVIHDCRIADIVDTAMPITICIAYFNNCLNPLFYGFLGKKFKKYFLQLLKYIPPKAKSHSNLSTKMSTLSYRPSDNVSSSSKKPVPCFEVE
# Experimental: (§1) As previously discussed, the compounds of Formula I are potent effective antagonists of angiotensin II. The ability of representative compounds of Formula I to block angiotensin II receptor binding was determined using the adrenal glomerulosa assay. The ability to antagonize angiotensin-induced vasoconstriction was evaluated in the rabbit aorta test system.
# New Zealand white rabbits (Hazelton, 2-3 kg) were sacrificed by cervical dislocation. The thoracic aortas were removed and cleaned of excess fat and connective tissue. Rings of tissue (3 mm wide) were mounted in 10 ml tissue baths between 2 L-shaped stainless steel hooks. The lower hook was attached to a stationary rod. The upper hook was attached to a force displacement transducer (Grass model FT.03). The bath chambers were maintained at 37° C., aerated with 95% 02 /5% C02, and contained physiological solution of the following composition (mM): NaCl, 117; glucose, 5.6; NaH2 PO4, 1.0; MgS04, 0.7; KCl, 5.2; CaCl2, 1.8; NaHCO3, 26; and phentolamine HCl, 0.003.
# Rings were equilibrated for 1 hour with 2 g of tension. During the equilibration period, the tissues were washed by overflow every 15 minutes. Rings were then exposed to 10^-8 M angiotensin II (AII) and were allowed to contract until a steady state was reached. Tissues were then washed every 15 minutes for 1 hour. This was repeated every hour until the AII response stabilized. A cumulative concentration response curve to AII (10^-10 to 10^-7 M) was then obtained. At the conclusion of the concentration response curve, tissues were washed every 2 minutes until baseline tension was reached, then every 15 minutes for 30 minutes. Compounds were added in a volume of 10 μl DMSO and allowed to incubate for 30 minutes before repeating the concentration response curve to AII. Contractions to AII were expressed as a percent of the maximum contraction obtained in the control curve (the first AII concentration response curve). EC50 's (concentration that contracted the tissues to 1/2 the control maximum) for each curve were calculated using a 4 parameter logistics model (NonLin, SAS Institute). Potency data for each compound tested are expressed as the pA2 (defined as-log KB, where KB =[molar concentration of antagonist]/[(EC50 AII with antagonist/EC50 AII without antagonist)-1]).
# [2] = target: angiotensin II receptor (adrenal membranes); test: Adrenal Glomerulosa Test System: binding of I^125-angiotensin II to adrenal membranes; conditions: displacement of 0.1 nM I^125-angiotensin II, rat adrenal membranes, 90 minutes, room temperature; KI by Cheng Prusoff equation; read-out: Adrenal Glomulosa (KI)
# Experimental: as §1
# Binding of I^125 -angiotensin II to adrenal membranes was routinely carried out in 96-well filtration plates. Adrenal membranes were prepared from the capsular portion (glomerulosal layer attached) of rat adrenal glands by differential centrifugation. Briefly, capsules were homogenized in a solution containing sucrose, 250 mM; MgCl2, 1 mM; and tris, 5 mM at pH 7.5 and 4° C. using a polytron at setting 5 for 20 seconds. The homogenate was stirred, gently, for 15 minutes at 4° C. and then centrifuged 10 minutes, at 1000×g, 4° C. The supernatant was centrifuged 30 minutes, at 30,000×g, 4° C., and the resulting pellet resuspended in 50 mM tris. Membrane preparations were stored in aliquots at -70° C. until used. Binding of I^125 -angiotensin II to adrenal membranes was performed at room temperature for 90 minutes in 96-well plates containing a hydrophilic polyvinylidene fluoride membrane (0.45 μm, Millipore-GV multiscreen). Each 250 μincubate contained the following (final concentration): tris, 50 mM; NaCl, 120 mM; MgCl2, 5 mM; dithiothrietol 1 mM; bovine serum albumin, 0.05%; I^125 -angiotensin II, 0.1 nM; and adrenal membrane protein, 8-15 μg. Antagonists were added in concentrations from 10 nM to 100 μM. Non-specific binding was measured in the presence of 0.1 μM Sar1, Ile8 angiotensin II.
# Binding was terminated by vacuum filtration. Receptor-ligand complex trapped on filters was washed 3 times with 300 μl ice-cold wash solution (tris, 50 mM; NaCl, 120 mM; MgCl2, 5 mM; dithiothrietol, 1 mM). Filter discs were dried, punched out and counted in a gamma counter at 52% efficiency. Specific binding represented 96% of total binding (approximately 150 fmol angiotensin II/mg protein). The molar concentration (IC50) of the inhibitor that displaced 50% of the binding of I^125 angiotensin II for each compound was calculated using a 4 parameter logistics model (NonLin, SAS Institute). Data are expressed as KI calculated using the Cheng Prusoff equation. See Cheng et al. Biochem. Pharmacol. 22: 3099 (1973).
Compound,Kb [1],Ki [2]
"CCCCCCC(C(=O)NCC(F)(F)F)n1cnc(NC(=O)c2ccccc2S(=O)(=O)O)c1 (stereo not drawn) [Example 3, N-(2,2,2-Trifluoroethyl)-2-[4-(2-sulfobenzoyl)amino-1H-imidazol-1-yl]octanoamide]",3.98 µM,9.6 µM
"CCCCCCC(C(=O)N1CCNC1=O)n1cnc(NC(=O)c2ccccc2S(=O)(=O)O)c1 (stereo not drawn) [Example 5, 2-[[[1-[1-[(2-oxo-1-imidazolidinyl)carbonyl]heptyl]-1H-imidazol-4-yl]amino]carbonyl]benzenesulfonic acid]",0.501 µM,178 µM
"CCCCCCC(C(=O)Nc1ccccn1)n1cnc(NC(=O)c2ccccc2S(=O)(=O)O)c1 (stereo not drawn) [Example 7, N-(2-Pyridyl)-2-[4-(2-sulfobenzoyl)amino-1H-imidazol-1-yl]octanoamide]",1.58 µM,6.8 µM
"CCCCCCC(C(=O)O)n1cnc(NC(=O)c2cccc(O)c2S(=O)(=O)O)c1 (stereo not drawn) [Example 10, 2-[4-(3-Hydroxy-2-sulfobenzoyl)amino-1H-imidazol-1-yl]octanoic acid]",0.0631 µM,2.93 µM

# More lines, in order of falling Ki [2], values ahead:
Kb [1],Ki [2],Compound
1.58 µM,13 µM,"CCCCCCC(C(=O)Nc1ccccc1O)n1cnc(NC(=O)c2ccccc2S(=O)(=O)O)c1 (stereo not drawn) [Example 8, N-(2-Hydroxyphenyl)-2-[4-(2-sulfobenzoyl)amino-1H-imidazol-1-yl]octanoamide]"
0.251 µM,12.4 µM,"CCCCCCC(C(=O)Nc1ccccc1C(=O)O)n1cnc(NC(=O)c2ccccc2S(=O)(=O)O)c1 (stereo not drawn) [Example 9, N-(2-Carboxyphenyl)-2-[4-(2-sulfobenzoyl)amino-1H-imidazol-1-yl]octanoamide]"
1 µM,12.1 µM,"CCCCCCC(C(=O)NC(C)(C)CO)n1cnc(NC(=O)c2ccccc2S(=O)(=O)O)c1 (stereo not drawn) [Example 4, N-[2-(1-Hydroxy-2-methyl)propyl]-2-[4-(2-sulfobenzoyl)amino-1H-imidazol-1-yl]octanoamide]"
2 µM,10.3 µM,"CCCCCCC(C(=O)NCC)n1cnc(NC(=O)c2ccccc2S(=O)(=O)O)c1 (stereo not drawn) [Example 1, N-Ethyl-2-[4-(2-sulfobenzoyl)amino-1H-imidazol-1-yl]octanoamide]"
0.794 µM,8.2 µM,"CCCCCCC(C(=O)NCCC)n1cnc(NC(=O)c2ccccc2S(=O)(=O)O)c1 (stereo not drawn) [Example 2, N-Propyl-2-[4-(2-sulfobenzoyl)amino-1H-imidazol-1-yl]octanoamide]"
